Reference: patent publication US9717806B2, “Method for detecting cancer using ICG fluorescence method” (Osaka Prefectural Hospital Organization, priority 2008, dated 2017)

Key:
Format in all cases: in vivo, human
hepatocellular carcinoma [1] = experiment: Intraoperative ICG fluorescence detection of accessory lesions with infrared camera system PDE, primary liver cancer; details: for confirmation of HCC areas by intraoperative PDE diagnosis: identification of main tumor by intraoperative ultrasonography was difficult
Experimental: (§1) Now the method of detecting an accessory cancer lesion using the accessory cancer lesion detector illustrated in FIG. 1 is described. First, the fluorescent dye indocyanine green is injected intravenously. After the lapse of a certain time (typically 1 to 10 days from the intravenous injection), when excitation light 10 of a certain wavelength (760 nm for instance) is irradiated on the target organ 20 from the excitation light source unit 2, a fluorescence image 11 in the near-infrared wavelength band is emitted by the accessory cancer lesion because of the indocyanine green. Here, the optical filter 3 allows the passage of the fluorescence image 11 while cutting off the reflected light coming from the target organ 20 that is being irradiated by the excitation light 10.
(§2) The fluorescence image 11 that passes through the optical filter 3 is captured by the CCD camera used as the imager 4, and the data of the observed image is output from the CCD camera to the controller 5. The controller 5 controls the brightness and contrast of the observed image coming from the imager 4. As a result, the observed image 15 (which includes the image of the main cancer lesion) containing the accessory cancer lesion image 16 is generated. […] Furthermore, if necessary, the observed image 15 is recorded on a recording medium in the image recorder 7.
(§3) In the examples 1 to 5 given below, the ICG (0.5 mg/kg) was injected intravenously a few days before the surgery. In other words, in the examples 1, 2, 3, 4, and 5, the intravenous ICG injection was administered, respectively, 4, 4, 8, 1, and 4 days before the surgery. […] In examples 1 to 4, the cancer was primary liver cancer, and in Example 5 it was metastatic liver cancer.

metastatic liver cancer = experiment: Intraoperative ICG fluorescence detection of accessory lesions with infrared camera system PDE, metastatic liver cancer; details: Example 5, person; ICG 0.5 mg/kg intravenously 4 days before surgery; S4 segment of the liver; histology: adenocarcinoma, metastasis of colon cancer into the liver
Experimental: as §1
as §2, with “7. […]” for “7.”

hepatocellular carcinoma [2] = experiment: PDE observation of cross-sections of resected, formalin-fixed liver slices after ICG injection; details: Example 4, ICG 0.5 mg/kg intravenously 1 day before surgery, 3 mm thick slices, areas diagnosed as highly differentiated HCC
Experimental: as §3
Example 4 was a case of a person. Preoperative contrast CT detected the presence of a single HCC, 25 mm in diameter, in the S5 segment of the liver. FIG. 6A is an image showing the result of contrast CT. The arrow indicates the HCC. […] FIG. 6B is a near-infrared fluorescence intensity distribution image (measured after the abdomen was opened but before the resection) from ICG in the liver. The fluorescent area indicated by the arrow at left is the main tumor area (main lesion), and the two arrows (arrowheads) on the right indicate fluorescent areas (accessory lesions), 3 mm in diameter, observed around the main tumor. Based on the above measurements, more than one fluorescent area (accessory lesions), each 3 mm in diameter, were resected in addition to the main tumor (main lesion). Further, the resected liver was fixed in formalin and made into 3 mm thick slices (FIG. 6C and FIG. 6G), and the cross-sections observed with the PDE (FIG. 6D and FIG. 6H). […]

SMILES: CC1(C)C(/C=C/C=C/C=C/C=C2\N(CCCCS(=O)(=O)O)c3ccc4ccccc4c3C2(C)C)=[N+](CCCCS(=O)(=O)[O-])c2ccc3ccccc3c21 [ICG, indocyanine green]
- diameter of fluorescent area (accessory lesion) detected in addition to the main tumor (hepatocellular carcinoma [1]; Example 1, person, ICG 0.5 mg/kg intravenously 4 days before surgery, S4 segment of the liver, not detected by contrast CT, histology: highly differentiated HCC): 5 mm
- diameter of fluorescent area (accessory lesion) (hepatocellular carcinoma [1]; Example 3, person, ICG 0.5 mg/kg intravenously 8 days before surgery, S5 segment of the liver, histology: slightly less differentiated HCC than the main tumor): 5 mm
- confirmation of HCC areas by intraoperative PDE diagnosis (hepatocellular carcinoma [1]; Example 3, ICG 0.5 mg/kg intravenously 8 days before surgery): could confirm the HCC areas (main and accessory lesions) as fluorescent areas
- diameter of fluorescent areas (accessory lesions) observed around the main tumor (hepatocellular carcinoma [1]; Example 4, person, ICG 0.5 mg/kg intravenously 1 day before surgery, histology: highly differentiated HCC): 3 mm
- confirmation of HCC areas by intraoperative PDE diagnosis (hepatocellular carcinoma [1]; Example 4, ICG 0.5 mg/kg intravenously 1 day before surgery): could confirm the HCC areas (main and accessory lesions) as fluorescent areas
- diameter of fluorescent area (accessory lesion) detected apart from the two lesions identified before the surgery (metastatic liver cancer): 5 mm
- near-infrared fluorescence in cross-sections of resected liver (hepatocellular carcinoma [2]): light emission from areas where no nodule was detected macroscopically
